Assay results as given in PMC9851200, “Multiparameter phenotypic screening for endogenous TFEB and TFE3 translocation identifies novel chemical series modulating lysosome function” (Autophagy, 2022).

Columns and labels:
Format in all cases: binding
[1] = target: T1, kinases (KINOMEscan panel) (Homo sapiens, UniProt O14730); details: RIOK3; NEW KINOMEscan
T1 sequence (O14730 1-519): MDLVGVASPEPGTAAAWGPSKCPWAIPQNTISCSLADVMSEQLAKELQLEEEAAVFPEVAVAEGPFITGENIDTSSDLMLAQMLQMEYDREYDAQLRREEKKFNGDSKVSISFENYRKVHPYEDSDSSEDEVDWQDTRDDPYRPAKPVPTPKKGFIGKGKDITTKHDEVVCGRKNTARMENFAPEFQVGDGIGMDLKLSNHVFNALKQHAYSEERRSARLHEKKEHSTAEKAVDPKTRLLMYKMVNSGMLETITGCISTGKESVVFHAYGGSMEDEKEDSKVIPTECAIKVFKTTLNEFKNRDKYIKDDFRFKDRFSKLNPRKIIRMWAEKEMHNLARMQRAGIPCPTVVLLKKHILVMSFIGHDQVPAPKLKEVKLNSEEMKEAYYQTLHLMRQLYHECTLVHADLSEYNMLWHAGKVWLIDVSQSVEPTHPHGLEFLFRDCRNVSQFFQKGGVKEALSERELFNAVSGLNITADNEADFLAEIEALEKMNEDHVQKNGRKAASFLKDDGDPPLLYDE

[2] = target: T2, kinases (KINOMEscan panel) (Homo sapiens, UniProt O95835); details: LATS1; NEW KINOMEscan
T2 sequence (O95835 1-1130): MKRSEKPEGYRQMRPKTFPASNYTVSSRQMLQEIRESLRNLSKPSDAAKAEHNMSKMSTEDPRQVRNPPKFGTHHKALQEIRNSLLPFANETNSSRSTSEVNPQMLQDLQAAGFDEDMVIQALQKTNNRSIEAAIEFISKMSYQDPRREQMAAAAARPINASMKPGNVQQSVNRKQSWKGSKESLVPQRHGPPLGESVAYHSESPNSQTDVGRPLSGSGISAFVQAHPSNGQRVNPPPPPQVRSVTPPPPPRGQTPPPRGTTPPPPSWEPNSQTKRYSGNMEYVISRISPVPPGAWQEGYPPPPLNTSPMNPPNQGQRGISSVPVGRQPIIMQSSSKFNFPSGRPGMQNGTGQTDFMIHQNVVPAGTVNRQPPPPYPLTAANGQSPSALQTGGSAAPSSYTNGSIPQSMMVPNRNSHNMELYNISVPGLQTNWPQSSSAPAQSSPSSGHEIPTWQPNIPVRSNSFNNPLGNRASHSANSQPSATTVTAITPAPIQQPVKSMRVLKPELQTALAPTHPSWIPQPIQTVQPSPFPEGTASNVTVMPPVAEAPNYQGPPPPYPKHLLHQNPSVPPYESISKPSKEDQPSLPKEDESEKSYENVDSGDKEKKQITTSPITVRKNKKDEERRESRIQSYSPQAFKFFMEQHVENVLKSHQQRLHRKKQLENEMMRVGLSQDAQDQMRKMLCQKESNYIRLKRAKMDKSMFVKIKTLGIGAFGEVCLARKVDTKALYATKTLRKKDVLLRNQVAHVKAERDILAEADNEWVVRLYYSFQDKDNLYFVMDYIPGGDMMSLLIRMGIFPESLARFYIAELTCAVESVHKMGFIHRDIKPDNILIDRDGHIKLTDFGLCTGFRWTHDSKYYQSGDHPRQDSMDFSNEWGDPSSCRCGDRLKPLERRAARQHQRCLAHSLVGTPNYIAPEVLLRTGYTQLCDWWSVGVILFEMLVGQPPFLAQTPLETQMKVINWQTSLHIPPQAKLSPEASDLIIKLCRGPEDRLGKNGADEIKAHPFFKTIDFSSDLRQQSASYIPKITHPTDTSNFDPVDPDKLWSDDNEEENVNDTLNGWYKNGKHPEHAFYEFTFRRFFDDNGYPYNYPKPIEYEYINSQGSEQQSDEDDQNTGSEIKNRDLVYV

[3] = target: kinases (KINOMEscan panel) (Homo sapiens, UniProt P10721); details: NEW KINOMEscan
[4] = target: kinases (KINOMEscan panel) (Homo sapiens, UniProt Q02779); details: kinase MAP3K10; NEW KINOMEscan
[5] = target: T3, kinases (KINOMEscan panel) (Homo sapiens, UniProt Q06418); details: NEW KINOMEscan
T3 sequence (Q06418 41-890): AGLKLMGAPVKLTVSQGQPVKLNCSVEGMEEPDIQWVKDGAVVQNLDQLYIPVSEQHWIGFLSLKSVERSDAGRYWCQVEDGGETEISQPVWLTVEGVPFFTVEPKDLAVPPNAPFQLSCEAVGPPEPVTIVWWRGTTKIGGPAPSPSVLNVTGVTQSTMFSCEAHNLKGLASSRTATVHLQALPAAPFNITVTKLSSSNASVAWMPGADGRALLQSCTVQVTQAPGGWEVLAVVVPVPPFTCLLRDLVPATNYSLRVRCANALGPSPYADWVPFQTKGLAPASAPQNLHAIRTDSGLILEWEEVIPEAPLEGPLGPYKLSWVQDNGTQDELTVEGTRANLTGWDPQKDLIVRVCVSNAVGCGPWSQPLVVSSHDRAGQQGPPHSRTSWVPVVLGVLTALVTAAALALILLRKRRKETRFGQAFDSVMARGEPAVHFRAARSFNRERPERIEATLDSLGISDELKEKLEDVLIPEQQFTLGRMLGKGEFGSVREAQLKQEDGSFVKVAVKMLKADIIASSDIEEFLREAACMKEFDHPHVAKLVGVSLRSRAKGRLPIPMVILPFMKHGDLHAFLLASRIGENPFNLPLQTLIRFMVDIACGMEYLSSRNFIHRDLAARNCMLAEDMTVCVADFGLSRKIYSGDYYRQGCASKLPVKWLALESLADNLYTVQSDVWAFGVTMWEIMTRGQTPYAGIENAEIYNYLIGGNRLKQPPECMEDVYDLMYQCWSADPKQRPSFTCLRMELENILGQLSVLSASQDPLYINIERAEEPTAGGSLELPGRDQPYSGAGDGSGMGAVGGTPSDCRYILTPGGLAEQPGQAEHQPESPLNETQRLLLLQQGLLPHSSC

[6] = target: kinases (KINOMEscan panel) (Homo sapiens, UniProt Q13555); details: CAMK2G; NEW KINOMEscan
[7] = target: kinases (KINOMEscan panel) (Homo sapiens, UniProt Q9HBH9); details: MKNK2; NEW KINOMEscan
[8] = target: kinases (KINOMEscan panel) (Homo sapiens, UniProt Q9UM73, C1156Y); details: kinase ALK(C1156Y); NEW KINOMEscan
Sequence of kinases (KINOMEscan panel) (Homo sapiens, UniProt Q9UM73, C1156Y) (Q9UM73 19-1620 C1156Y): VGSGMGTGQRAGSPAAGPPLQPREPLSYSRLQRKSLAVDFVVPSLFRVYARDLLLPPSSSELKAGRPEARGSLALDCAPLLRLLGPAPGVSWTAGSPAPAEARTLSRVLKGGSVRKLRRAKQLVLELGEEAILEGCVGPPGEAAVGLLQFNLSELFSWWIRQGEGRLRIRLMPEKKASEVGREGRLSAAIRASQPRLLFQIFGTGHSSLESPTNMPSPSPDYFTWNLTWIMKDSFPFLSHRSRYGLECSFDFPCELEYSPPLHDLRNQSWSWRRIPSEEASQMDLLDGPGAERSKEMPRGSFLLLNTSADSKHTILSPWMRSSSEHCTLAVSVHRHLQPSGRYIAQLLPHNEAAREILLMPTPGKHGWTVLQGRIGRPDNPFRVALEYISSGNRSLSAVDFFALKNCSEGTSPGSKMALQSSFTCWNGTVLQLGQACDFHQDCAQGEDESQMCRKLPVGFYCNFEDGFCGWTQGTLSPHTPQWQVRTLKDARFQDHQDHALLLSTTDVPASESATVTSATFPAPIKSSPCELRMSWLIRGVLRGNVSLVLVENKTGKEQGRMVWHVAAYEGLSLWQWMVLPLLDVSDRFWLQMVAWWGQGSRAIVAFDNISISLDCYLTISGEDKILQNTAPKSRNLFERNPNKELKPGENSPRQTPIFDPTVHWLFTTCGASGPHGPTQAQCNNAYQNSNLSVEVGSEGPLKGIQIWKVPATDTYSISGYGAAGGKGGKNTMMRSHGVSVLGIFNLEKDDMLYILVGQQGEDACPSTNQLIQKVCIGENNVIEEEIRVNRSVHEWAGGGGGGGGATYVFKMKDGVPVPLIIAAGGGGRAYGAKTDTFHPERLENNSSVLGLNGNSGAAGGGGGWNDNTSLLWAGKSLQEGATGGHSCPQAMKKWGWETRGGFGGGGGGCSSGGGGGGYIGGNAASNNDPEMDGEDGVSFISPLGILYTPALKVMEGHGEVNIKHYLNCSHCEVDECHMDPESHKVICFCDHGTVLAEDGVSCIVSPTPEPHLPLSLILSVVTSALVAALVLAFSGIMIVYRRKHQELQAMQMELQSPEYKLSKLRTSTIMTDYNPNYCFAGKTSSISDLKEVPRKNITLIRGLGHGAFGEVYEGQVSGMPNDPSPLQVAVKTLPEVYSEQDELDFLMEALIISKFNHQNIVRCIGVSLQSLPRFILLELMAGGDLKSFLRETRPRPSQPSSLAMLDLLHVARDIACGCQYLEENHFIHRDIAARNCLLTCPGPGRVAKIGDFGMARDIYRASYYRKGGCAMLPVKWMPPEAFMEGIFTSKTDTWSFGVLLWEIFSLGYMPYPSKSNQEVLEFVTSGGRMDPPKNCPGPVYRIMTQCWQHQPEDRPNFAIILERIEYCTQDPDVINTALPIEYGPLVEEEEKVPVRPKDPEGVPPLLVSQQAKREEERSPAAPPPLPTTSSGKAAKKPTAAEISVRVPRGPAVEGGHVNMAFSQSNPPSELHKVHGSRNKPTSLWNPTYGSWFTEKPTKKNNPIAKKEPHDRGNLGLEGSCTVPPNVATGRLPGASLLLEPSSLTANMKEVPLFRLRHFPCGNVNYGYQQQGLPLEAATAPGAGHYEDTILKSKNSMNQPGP

Sequence of kinases (KINOMEscan panel) (Homo sapiens, UniProt P10721) (P10721 26-976): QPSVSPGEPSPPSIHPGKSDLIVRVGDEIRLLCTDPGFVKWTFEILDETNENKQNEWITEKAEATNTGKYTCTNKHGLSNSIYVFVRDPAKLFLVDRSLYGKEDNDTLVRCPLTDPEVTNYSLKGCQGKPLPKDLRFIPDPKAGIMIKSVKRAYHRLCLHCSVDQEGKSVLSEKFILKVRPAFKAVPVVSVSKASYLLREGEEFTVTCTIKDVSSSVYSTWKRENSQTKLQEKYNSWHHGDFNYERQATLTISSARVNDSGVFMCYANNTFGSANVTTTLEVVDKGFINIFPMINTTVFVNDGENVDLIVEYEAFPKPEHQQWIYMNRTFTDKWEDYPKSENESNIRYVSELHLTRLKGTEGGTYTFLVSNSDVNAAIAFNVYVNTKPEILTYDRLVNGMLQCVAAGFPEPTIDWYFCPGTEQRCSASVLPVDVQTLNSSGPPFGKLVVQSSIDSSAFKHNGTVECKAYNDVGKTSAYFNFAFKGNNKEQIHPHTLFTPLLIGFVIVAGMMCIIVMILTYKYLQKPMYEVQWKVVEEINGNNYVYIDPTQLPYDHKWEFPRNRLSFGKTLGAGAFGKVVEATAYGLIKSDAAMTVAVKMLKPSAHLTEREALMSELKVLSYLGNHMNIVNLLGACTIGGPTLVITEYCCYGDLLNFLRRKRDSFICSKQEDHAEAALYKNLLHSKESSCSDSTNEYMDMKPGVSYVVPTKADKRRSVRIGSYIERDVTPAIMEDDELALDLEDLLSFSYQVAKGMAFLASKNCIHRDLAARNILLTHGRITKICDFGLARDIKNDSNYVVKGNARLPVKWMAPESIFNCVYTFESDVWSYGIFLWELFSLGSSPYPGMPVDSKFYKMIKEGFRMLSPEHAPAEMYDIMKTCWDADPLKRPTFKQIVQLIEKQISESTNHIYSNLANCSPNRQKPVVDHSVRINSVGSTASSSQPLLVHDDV
Sequence of kinases (KINOMEscan panel) (Homo sapiens, UniProt Q9HBH9) (Q9HBH9 whole entry): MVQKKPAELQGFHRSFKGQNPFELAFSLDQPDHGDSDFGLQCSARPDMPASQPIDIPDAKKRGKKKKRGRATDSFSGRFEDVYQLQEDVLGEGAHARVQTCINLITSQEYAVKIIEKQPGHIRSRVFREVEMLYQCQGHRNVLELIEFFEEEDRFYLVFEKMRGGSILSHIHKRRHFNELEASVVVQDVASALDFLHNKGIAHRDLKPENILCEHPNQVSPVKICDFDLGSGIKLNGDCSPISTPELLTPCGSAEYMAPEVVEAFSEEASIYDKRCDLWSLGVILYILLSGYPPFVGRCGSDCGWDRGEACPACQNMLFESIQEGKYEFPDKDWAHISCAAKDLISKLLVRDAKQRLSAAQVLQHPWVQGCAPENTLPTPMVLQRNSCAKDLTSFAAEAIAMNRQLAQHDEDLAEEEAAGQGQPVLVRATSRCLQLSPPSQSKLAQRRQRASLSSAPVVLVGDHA
Sequence of kinases (KINOMEscan panel) (Homo sapiens, UniProt Q02779) (Q02779 whole entry): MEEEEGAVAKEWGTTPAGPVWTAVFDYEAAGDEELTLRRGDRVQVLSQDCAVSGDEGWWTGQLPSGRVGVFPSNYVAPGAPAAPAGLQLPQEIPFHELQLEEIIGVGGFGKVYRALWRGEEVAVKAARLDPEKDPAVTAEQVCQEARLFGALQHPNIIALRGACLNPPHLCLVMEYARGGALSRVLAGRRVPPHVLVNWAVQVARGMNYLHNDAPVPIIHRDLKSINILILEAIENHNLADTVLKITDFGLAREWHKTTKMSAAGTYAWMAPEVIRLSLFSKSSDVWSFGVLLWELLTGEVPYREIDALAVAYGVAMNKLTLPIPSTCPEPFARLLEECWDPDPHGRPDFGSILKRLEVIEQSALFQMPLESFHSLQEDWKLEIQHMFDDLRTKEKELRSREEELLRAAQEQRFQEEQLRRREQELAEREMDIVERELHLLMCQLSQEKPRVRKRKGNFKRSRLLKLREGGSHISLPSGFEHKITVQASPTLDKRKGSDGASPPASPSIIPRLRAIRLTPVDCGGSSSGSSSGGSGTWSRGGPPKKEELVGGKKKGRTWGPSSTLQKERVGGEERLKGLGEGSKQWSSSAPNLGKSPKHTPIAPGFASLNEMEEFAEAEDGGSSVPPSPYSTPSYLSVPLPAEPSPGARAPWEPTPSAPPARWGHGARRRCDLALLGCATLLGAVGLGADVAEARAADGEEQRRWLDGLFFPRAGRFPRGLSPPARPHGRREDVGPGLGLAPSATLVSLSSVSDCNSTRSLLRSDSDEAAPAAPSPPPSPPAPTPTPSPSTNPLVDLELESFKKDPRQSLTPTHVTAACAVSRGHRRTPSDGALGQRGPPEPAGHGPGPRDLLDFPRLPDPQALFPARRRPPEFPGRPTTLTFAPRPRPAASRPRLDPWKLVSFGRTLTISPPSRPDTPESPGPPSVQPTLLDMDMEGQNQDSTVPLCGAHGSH
Sequence of kinases (KINOMEscan panel) (Homo sapiens, UniProt Q13555) (Q13555 whole entry): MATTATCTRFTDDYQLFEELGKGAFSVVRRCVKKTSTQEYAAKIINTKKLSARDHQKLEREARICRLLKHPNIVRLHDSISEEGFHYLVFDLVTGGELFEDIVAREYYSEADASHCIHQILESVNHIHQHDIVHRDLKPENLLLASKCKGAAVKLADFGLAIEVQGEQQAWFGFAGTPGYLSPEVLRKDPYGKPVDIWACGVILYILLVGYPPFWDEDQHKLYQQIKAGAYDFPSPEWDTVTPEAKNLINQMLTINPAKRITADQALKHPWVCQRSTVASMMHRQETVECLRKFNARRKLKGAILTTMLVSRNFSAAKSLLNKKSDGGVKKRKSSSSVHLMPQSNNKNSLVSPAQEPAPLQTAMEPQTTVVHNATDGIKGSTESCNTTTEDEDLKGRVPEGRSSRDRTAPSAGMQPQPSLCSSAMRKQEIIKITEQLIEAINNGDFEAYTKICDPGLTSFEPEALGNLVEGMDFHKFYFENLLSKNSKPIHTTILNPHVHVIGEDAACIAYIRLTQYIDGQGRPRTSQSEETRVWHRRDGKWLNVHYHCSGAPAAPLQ

Compound | KINOMEscan RIOK3 [1] | KINOMEscan LATS1 [2] | KINOMEscan KIT-autoinhibited [3] | KINOMEscan KIT [3] | KINOMEscan MAP3K10 [4] | KINOMEscan TYRO3 [5] | KINOMEscan CAMK2G [6] | KINOMEscan MKNK2 [7] | KINOMEscan ALK(C1156Y) [8]
Cc1cccc(-c2nc(Nc3ccc4nn(C)cc4c3)c3ccccc3n2)n1 [NK167] | 0 | 0 | 1 | 8 | 13 | 4 | 0 | 0 | 11
Cc1cccc(-c2nc(N(C)c3ccc4ncsc4c3)c3ccccc3n2)n1 [NK-161] | 0 | 5 | 0 | 5 | 1 | 21 | 0 | 0 | 2
